Data set [1] in a line: in vitro. As to conditions: human.
The subject of data set [2] is EV-D68 US/KY/14-18953 virus. Description: CPE assay, EV-D68 US/KY/14-18953 in RD cells. As to conditions: EV-D68 US/KY/14-18953, RD cells. It counts as cell-based, Enterovirus D68 (EV-D68).
The test system of data set [3] is RD cells. As to conditions: human, 3 days.
For data set [4], the system named is HeLa. Description: Cytotoxicity in HeLa cells.
Protocol: (§1) The cytotoxicity of each compound was determined using the neutral red cell viability assay. The assay was performed under similar conditions (incubation temperature, time, and media) as the CPE, but excluded viral infection. Data acquisition and analysis (CC50) was performed similarly to the antiviral CPE assay, and all values are from triplicate experiments.
In data set [5] the test system is RD cells. Description: Cytotoxicity, neutral red method, RD cells. As to conditions: RD cells, neutral red method.
The test system of data set [6] is EV-D68 US/IL/14-18956. Description: CPE assay, EV-D68 US/IL/14-18956 in RD cells. As to conditions: EV-D68 US/IL/14-18956, RD cells.
Data set [7] deals with A549. Nature of the data set: Cytotoxicity in A549 cells.
Protocol: as §1
Data set [8] deals with EV-D68 US/MO/14-18947. Description: CPE assay, EV-D68 US/MO/14-18947 in RD cells. As to conditions: EV-D68 US/MO/14-18947, RD cells.
For data set [9], the system named is EV-D68 UA/IL/14-18952. Description: CPE assay, EV-D68 UA/IL/14-18952 in RD cells. As to conditions: EV-D68 UA/IL/14-18952, RD cells.
For data set [10], the system named is EV-D68 US/MO/14-18949. Description: CPE assay, EV-D68 US/MO/14-18949 in RD cells. As to conditions: EV-D68 US/MO/14-18949, RD cells.
Data set [11] in a line: Mouse microsomal stability. As to conditions: mouse liver microsomes. It counts as in vitro ADME. As to the method: Test compounds were incubated at 37° C. with liver microsomes (mouse or human) (Xenotech) at 1 μM drug concentration in the presence of a NADPH regenerating system at 0.5 mg/ml microsomal protein. Testosterone (3A4 substrate), Propafenone (2D6), and Diclofenac (2C9) were included as positive controls. Compounds were incubated with microsomes in the presence of a NADPH regenerating system (Sigma, Cat. No. N0505, Lot SLBH3107V). Aliquots at 0, 5, 10, 20, 30 and 60 minutes post incubation were collected and immediately mixed with cold acetonitrile containing internal standard (IS). Compounds incubated with microsomes without NADPH regenerating system for 60 minutes were also included. All the samples were analyzed by LC/MS/MS; disappearance of test compound were assessed based on peak area ratios of analyte/IS. Following equations were applied to calculate the microsome clearance: […]
A general note: Microsomes from liver hold many membrane-bound enzymes, among them those of drug oxidation.

Data set [12] concerns CVB3. Nature of the data set: CPE assay, CVB3 in Vero C1008 cells. As to conditions: Enterovirus B; CVB3, Vero C1008 cells; read-out: EC50. It counts as cell-based, coxsackievirus B3 (CVB3).
Data set [13] concerns EV-A71 US/AK/16-19516. Description: CPE assay, EV-A71 US/AK in RD cells. It counts as cell-based. As to conditions: Enterovirus A, EVA71.
Data set [14] has as its system EV-A71 Tainan/4643/98. Description: CPE assay, EV-A71 Tainan in RD cells. The data set is classed as cell-based. As to conditions: Enterovirus A, EVA71; EV-A71 Tainan, RD cells; read-out: EC50.
Data set [15] can be described thus: in vitro. As to conditions: African green monkey.

Read-outs that look alike come from different tables or passages of the source.

For the molecule `O=C(NC1C2CNCC21)c1cc(-c2cccs2)nc2ccccc12` (centres unmarked) [Compound 6bk, N-{3-azabicyclo[3.1.0]hexan-6-yl}b-2-(thiophen-2-yl)quinoline-4-carboxamide], the CC50 at 3 days in [1] is 34.5 µM. Further, the “SI = selectivity index (CC50/EC50)” value in [2] is on record as “SI50 = 5.4”. Further, the EC50 in [2] (Enterovirus D, EVD68, RD, CPE assay, read-out: EC50) was found to be 6.4 µM.
Take `O=C(NC1CN2CCC1CC2)c1cc(-c2ccccc2)nc2ccccc12` (centres unmarked) [Compound 10c, N-{1-azabicyclo[2.2.2]octan-3-yl}-2-phenylquinoline-4-carboxamide]: the CC50 in data set [3] is 46.5 ± 14.7 µM.
With `Cc1ccc2c(c1)c1c3n2CCNC3CCC1` (centres unmarked) [drawing 10], the CC50 in data set [3] is 19 ± 1.6 µM.
Regarding `O=C(NCCN1CCCC1)c1cc(-c2cccs2)nc2ccccc12` [drawing 130], the CC50 in [4] was determined as 41.7 µM; in data set [5], 40 µM; in data set [7], 83.2 µM. In addition, the “SI (CC50/EC50)” value in data set [6] is given as 800; in [8] it was 666.7; in [9], 571.4; in [10], 800. The same molecule gave an EC50 in [8] (Enterovirus D, EVD68, RD) of 0.06 µM. Also, in [2], the “SI = selectivity index (CC50/EC50)” value amounted to 666.7.
With `CN(C)CCNC(=O)c1cc(-c2ccccc2)nc2ccccc12` [drawing 181], the half-life at 1 μM in [11] (1 μM, NADPH, read-out: Mouse microsomal stability T1/2) is 22.4 min. The CLint scaled at 1 μM in data set [11] (scaled to liver) was determined as 246 mL/min/kg. The EC50 was 0.3 µM in data set [12], 0.2 µM in [8], more than 10 µM in data set [13] and 4.2 µM in data set [14].
Regarding `Cc1ccc2c(c1)c1c3n2CCNC3CCC1` (centres unmarked) [drawing 197], the figures for the CC50 at 3 days in [1] and in data set [15] were 19 µM and 40.5 µM, respectively. Further, the concentration giving a half-maximal response (EC50) in data set [14] was more than 20 µM.

For orientation: EC50 means the concentration giving half of the maximal effect. The term CLint scaled denotes the capacity of the preparation to metabolise the compound, expressed as a volume cleared per time.
